Experiment [1] has as its system GRP78 and GRP94. The experiment is described as follows: In-cell-western of KDEL (GRP78/GRP94) expression (ER stress). The format is cell-based, human. Particulars: H4 cells treated with tunicamycin. How it is done:
For quantitative analysis of mTORC1 signaling and induction of endoplasmic reticulum stress, in-cell-western analysis of rpS6 phosphorylation and KDEL (GRP78/GRP94) expression (‘KDEL’ disclosed as SEQ ID NO: 2), respectively, were performed. H4 cells were cultured in 384-well plates and fixed and counterstained as described for the LC3-GFP assay. Following imaging, the cells were permeabilized in PBS containing 0.2% Tx-100 and stained with Alexa-680 NETS-ester, a non-specific lysine reactive probe used to measure relative cell number, at 20 ng/mL for 15 minutes. Subsequently, the cells were washed with PBS containing 0.2% Tx-100 and incubated for 30 minutes in blocking buffer (LiCOR Blocking Buffer diluted 1:1 with PBS+0.2% Tx-100). Cells were then incubated overnight with a rabbit-anti-rpS6 phospho-235/236 (Cell Signaling Technologies), or mouse-anti-KDEL (Stressgen) antibody (‘KDEL’ disclosed as SEQ ID NO: 2) diluted 1:1000 in blocking buffer. […] The intensities of both, the rpS6 phospho-235/236 or KDEL staining (‘KDEL’ disclosed as SEQ ID NO: 2), and of NHS-ester staining were integrated, and the normalized phospho-S6 or KDEL score (‘KDEL’ disclosed as SEQ ID NO: 2) were calculated by dividing phospho-rpS6 or KDEL intensity by NHS-ester intensity (‘KDEL’ disclosed as SEQ ID NO: 2). […]

In experiment [2] the test system is H4 cells stably expressing LC3-GFP. The experiment is described as follows: LC3-GFP autophagosome translocation image-based assay. The format is cell-based, human. Particulars: H4 cells treated with tunicamycin. How it is done:
H4 human neuroblastoma cells were cultured under standard tissue culture conditions in DMEM media supplemented with 10% normal calf serum, penicillin/streptomycin, sodium pyruvate (Invitrogen) and, where appropriate, 0.4-1.2 mg/mL G418. LC3-GFP and FYVE-dsRed H4 cells were generated as described in Zhang et al., PNAS, 102, 15545-15550 (2007). To create a stable line expressing Lamp1, H4 cells were transfected with Lamp1-RFP plasmid using TransIT LT1 reagent (Minis), followed by selection with 0.4 mg/mL G418. Bcl-2 expressing cell lines were created by infecting LC3-GFP and FYVE-dsRed H4 cells with pBabe-Bcl-2 retrovirus, followed by selection with […] puromycin.
For the cytokine assays, cells were seeded at 0.5×10^5 in full medium in either 24-well (western) or 96-well (LC3-GFP quantification) plates. After 24 hours, cells were washed in PBS and serum-free OptiMEM medium (Invitrogen) was added along with the indicated growth factors and/or cytokines for an additional 24 hours. Growth factors and cytokines used include human TNFα (Cell Sciences), human LIF (GeneScript Corporation), human FGF2 (ProSpec), human IGF1 (ProSpec), human SDF1 (Prospec) and human CLCF1 (R&D Systems). To induce starvation, cells were cultured for 24 hours in full media, washed in PBS and cultured for additional 4 hours in HBSS bedia (Invitrogen). […]
For high-throughput screens, cells were imaged on an automated CellWoRx microscope (Applied Precision) at 10× magnification using 2 wavelengths (350 nm to detect Hoechst, 488 nm to detect LC3-GFP) for the primary screens and 3 wavelengths (350 nm, 488 nm and 550 nm to detect Lamp1-RFP or FYVE-dsRed) for the secondary screens. All images were quantified using VHSscan and VHSview image analysis software (Cellomics). Total cell number, total LC3-GFP intensity/cell as well as number, area and intensity of LC3-GFP positive autophagosomes/cell were scored. All dead and mitotic cells were excluded from analysis based on nuclear intensity. The final autophagy score for each well was obtained by multiplying the total autophagosome intensity/cell by the number of autophagosomes/cell and dividing by the average cell intensity. This formula was empirically determined to accurately measure LC3-GFP translocation from cytosol into autophagosomes as reflected by consistently significant z-scores and p-values when using siRNAs against mTOR and Atg5 controls. FYVE-dsRed and Lamp1-RFP scores were obtained in a manner similar to LC3-GFP scores, except that for Lamp1-RFP, which measures total accumulation of the reporter rather than its translocation, division by the average cell intensity was omitted.
For low-throughput follow-up analysis, cells were grown on glass cover slips. Following fixation in 4% paraformaldehyde and counterstaining with Hoechst, cover slips were mounted in 50% glycerol, 0.1% n-propyl gallate/PBS. Cells were imaged at 40× magnification on a Nikon Eclipse E800 microscope. Cell numbers, cell area and intensity, as well as autophagosome number and intensity, were quantified using Metamorph software. Autophagy was scored as number of autophagosomes per cell.
Human neuroblastoma H4 cells stably expressing the LC3-GFP reporter were used to identify genes involved in the regulation of autophagy in mammals. […] When autophagy is induced in these cells, LC3-GFP is recruited from the cytosol and can be visualized in a punctate pattern corresponding to autophagosomes. In order to validate the system, cells were transfected with siRNA against either the essential autophagy mediator ATG5 or against mTOR, a suppressor of starvation-induced autophagy. Following 72 hours of incubation under normal nutritional conditions, […].

As to tunicamycin [reference compound], the “levels of GRP78 and GRP94” value in experiment [1] is “dose-dependent up-regulation”. Besides, in experiment [2], the autophagy entry is given as “increase in autophagy”.

The values are drawn from patent US20160194631A1, “Methods for Modulation of Autophagy Through the Modulation of Autophagy-Inhibiting Gene Products” (Harvard Medical School, priority 2009, published 2016).
